# Results published in ChEMBL document CHEMBL4879554, “Data for DCP probe GNE-2256” (2021).
# The source made the active and inactive calls. The rule behind the calls is not given here.
# How the values were obtained:
# [1] = target: Death-associated protein kinase 3 (Homo sapiens) (UniProt O43293); assay: ZIPK Kinase panel; settings: Compound concentration 1.0 uM
# [2] = target: Tyrosine-protein kinase JAK1 (Homo sapiens, UniProt P23458); assay: NanoBRET assay (JAK1, SGC Frankfurt)
# [3] = R848-induced IL-6 production in human whole blood; assay type: tissue-based
# [4] = target: Cyclin-dependent kinase 1/cyclin B (Homo sapiens) (UniProt P06493+P14635+Q8WWL7+O95067); assay: CDK1/cyclinB Kinase panel; assay type: protein-complex assay; settings: Compound concentration 1.0 uM
# [5] = target: Activated CDC42 kinase 1 (Homo sapiens) (UniProt Q07912); assay: TNK2 Kinase panel; settings: Compound concentration 1.0 uM
# [6] = target: Macrophage colony-stimulating factor 1 receptor (Homo sapiens) (UniProt P07333); assay: CSF1R Kinase panel; settings: Compound concentration 1.0 uM
# [7] = target: Megakaryocyte-associated tyrosine-protein kinase (Homo sapiens) (UniProt P42679); assay: Hyl Kinase panel; settings: Compound concentration 1.0 uM
# [8] = target: Serine/threonine-protein kinase pim-1 (Homo sapiens) (UniProt P11309); assay: PIM1 Kinase panel; settings: Compound concentration 1.0 uM
# [9] = target: RAC-alpha serine/threonine-protein kinase (Homo sapiens) (UniProt P31749); assay: AKT1 Kinase panel; settings: Compound concentration 1.0 uM
# [10] = target: RAC-beta serine/threonine-protein kinase (Homo sapiens) (UniProt P31751); assay: AKT2 Kinase panel; settings: Compound concentration 1.0 uM
# [11] = target: Rho-associated protein kinase 2 (Homo sapiens) (UniProt O75116); assay: ROCK2 Kinase panel; settings: Compound concentration 1.0 uM
# [12] = target: Tyrosine-protein kinase TXK (Homo sapiens) (UniProt P42681); assay: TXK Kinase panel; settings: Compound concentration 1.0 uM
# [13] = target: Aurora kinase B (Homo sapiens) (UniProt Q96GD4); assay: Aurora_B Kinase panel; settings: Compound concentration 1.0 uM
# [14] = target: Mitogen-activated protein kinase kinase kinase kinase 1 (Homo sapiens) (UniProt Q92918); assay: HPK1 Kinase panel; settings: Compound concentration 1.0 uM
# [15] = target: Mast/stem cell growth factor receptor Kit (Homo sapiens) (UniProt P10721); assay: Kit Kinase panel; settings: Compound concentration 1.0 uM
# [16] = target: Tyrosine-protein kinase BTK (Homo sapiens) (UniProt Q06187); assay: BTK Kinase panel; settings: Compound concentration 1.0 uM
# [17] = target: D(2) dopamine receptor (Homo sapiens) (UniProt P14416); settings: Compound concentration 10.0 uM
# [18] = target: Sigma intracellular receptor 2 (Homo sapiens) (UniProt Q5BJF2); settings: Compound concentration 10.0 uM
# [19] = target: Inhibitor of nuclear factor kappa-B kinase subunit epsilon (Homo sapiens) (UniProt Q14164); assay: IKK_epsilon Kinase panel; settings: Compound concentration 1.0 uM
# [20] = target: Serine/threonine-protein kinase NLK (Homo sapiens) (UniProt Q9UBE8); assay: NLK Kinase panel; settings: Compound concentration 1.0 uM
# [21] = target: Serine/threonine-protein kinase Sgk3 (Homo sapiens) (UniProt Q96BR1); assay: SGK3 Kinase panel; settings: Compound concentration 1.0 uM
# [22] = target: Calcium/calmodulin-dependent protein kinase kinase 2 (Homo sapiens) (UniProt Q96RR4); assay: CAMKK2 Kinase panel; settings: Compound concentration 1.0 uM
# [23] = target: GABA-A receptor; anion channel (Rattus norvegicus) (UniProt O09028+P15431+P18506+P18508+P19969+P20236+P23574+P23576+P28471+P28473+P30191+P62813+P63079+P63138+Q91ZM7+Q9ES14); settings: Compound concentration 10.0 uM
# [24] = target: Beta-3 adrenergic receptor (Homo sapiens) (UniProt P13945); settings: Compound concentration 10.0 uM
# [25] = target: Dual specificity tyrosine-phosphorylation-regulated kinase 4 (Homo sapiens) (UniProt Q9NR20); assay: DYRK4 Kinase panel; settings: Compound concentration 1.0 uM
# [26] = target: Mitogen-activated protein kinase kinase kinase 10 (Homo sapiens) (UniProt Q02779); assay: MLK2 Kinase panel; settings: Compound concentration 1.0 uM
# [27] = target: Tyrosine-protein kinase receptor UFO (Homo sapiens) (UniProt P30530); assay: Axl Kinase panel; settings: Compound concentration 1.0 uM
# [28] = target: Serine/threonine-protein kinase MARK1 (Homo sapiens) (UniProt Q9P0L2); assay: MARK1 Kinase panel; settings: Compound concentration 1.0 uM
# [29] = target: 5'-AMP-activated protein kinase catalytic subunit alpha-1 (Homo sapiens) (UniProt Q13131); assay: PRKAA1 Kinase panel; settings: Compound concentration 1.0 uM
# [30] = target: Serine/threonine-protein kinase PLK1 (Homo sapiens) (UniProt P53350); assay: PLK1 Kinase panel; settings: Compound concentration 1.0 uM
# [31] = target: Beta-adrenergic receptor kinase 1 (Homo sapiens) (UniProt P25098); assay: GRK2 Kinase panel; settings: Compound concentration 1.0 uM
# [32] = target: Receptor-interacting serine/threonine-protein kinase 2 (Homo sapiens) (UniProt O43353); assay: RIPK2 Kinase panel; settings: Compound concentration 1.0 uM
# [33] = target: Maternal embryonic leucine zipper kinase (Homo sapiens) (UniProt Q14680); assay: MELK Kinase panel; settings: Compound concentration 1.0 uM
# [34] = target: Alpha-2A adrenergic receptor (Homo sapiens) (UniProt P08913); settings: Compound concentration 10.0 uM
# [35] = target: Focal adhesion kinase 1 (Homo sapiens) (UniProt Q05397); assay: FAK Kinase panel; settings: Compound concentration 1.0 uM
# [36] = target: Ribosomal protein S6 kinase alpha-2 (Homo sapiens) (UniProt Q15349); assay: RSK3 Kinase panel; settings: Compound concentration 1.0 uM
# [37] = target: MAP kinase-activated protein kinase 5 (Homo sapiens) (UniProt Q8IW41); assay: PRAK Kinase panel; settings: Compound concentration 1.0 uM
# [38] = target: Insulin receptor (Homo sapiens) (UniProt P06213); assay: InsR Kinase panel; settings: Compound concentration 1.0 uM
# [39] = target: Bone morphogenetic protein receptor type-1A (Homo sapiens) (UniProt P36894); assay: BMPR1A Kinase panel; settings: Compound concentration 1.0 uM
# [40] = target: 5-hydroxytryptamine receptor 3A (Homo sapiens) (UniProt P46098); settings: Compound concentration 10.0 uM
# [41] = target: Muscarinic acetylcholine receptor M5 (Homo sapiens) (UniProt P08912); settings: Compound concentration 10.0 uM
# [42] = target: 5-hydroxytryptamine receptor 5A (Homo sapiens) (UniProt P47898); settings: Compound concentration 10.0 uM
# [43] = target: Casein kinase II subunit alpha (Homo sapiens) (UniProt P68400); assay: CK2_alpha1 Kinase panel; settings: Compound concentration 1.0 uM
# [44] = target: Dual specificity protein kinase CLK3 (Homo sapiens) (UniProt P49761); assay: CLK3 Kinase panel; settings: Compound concentration 1.0 uM
# [45] = target: Dual specificity tyrosine-phosphorylation-regulated kinase 1A (Homo sapiens) (UniProt Q13627); assay: DYRK1A Kinase panel; settings: Compound concentration 1.0 uM
# [46] = target: 5-hydroxytryptamine receptor 2A (Homo sapiens) (UniProt P28223); settings: Compound concentration 10.0 uM
# [47] = target: D(4) dopamine receptor (Homo sapiens) (UniProt P21917); settings: Compound concentration 10.0 uM
# [48] = target: Mitogen-activated protein kinase kinase kinase kinase 4 (Homo sapiens, UniProt O95819); assay: MAP4K4 Kinase panel
# [49] = target: Tyrosine-protein kinase FRK (Homo sapiens) (UniProt P42685); assay: Frk Kinase panel; settings: Compound concentration 1.0 uM
# [50] = target: Serine/threonine-protein kinase mTOR (Homo sapiens) (UniProt P42345); assay: mTOR Kinase panel; settings: Compound concentration 1.0 uM
# [51] = target: Inhibitor of nuclear factor kappa-B kinase subunit beta (Homo sapiens) (UniProt O14920); assay: IKK_beta Kinase panel; settings: Compound concentration 1.0 uM
# Sequence of Insulin receptor (Homo sapiens) (P06213 28-758 limits assumed): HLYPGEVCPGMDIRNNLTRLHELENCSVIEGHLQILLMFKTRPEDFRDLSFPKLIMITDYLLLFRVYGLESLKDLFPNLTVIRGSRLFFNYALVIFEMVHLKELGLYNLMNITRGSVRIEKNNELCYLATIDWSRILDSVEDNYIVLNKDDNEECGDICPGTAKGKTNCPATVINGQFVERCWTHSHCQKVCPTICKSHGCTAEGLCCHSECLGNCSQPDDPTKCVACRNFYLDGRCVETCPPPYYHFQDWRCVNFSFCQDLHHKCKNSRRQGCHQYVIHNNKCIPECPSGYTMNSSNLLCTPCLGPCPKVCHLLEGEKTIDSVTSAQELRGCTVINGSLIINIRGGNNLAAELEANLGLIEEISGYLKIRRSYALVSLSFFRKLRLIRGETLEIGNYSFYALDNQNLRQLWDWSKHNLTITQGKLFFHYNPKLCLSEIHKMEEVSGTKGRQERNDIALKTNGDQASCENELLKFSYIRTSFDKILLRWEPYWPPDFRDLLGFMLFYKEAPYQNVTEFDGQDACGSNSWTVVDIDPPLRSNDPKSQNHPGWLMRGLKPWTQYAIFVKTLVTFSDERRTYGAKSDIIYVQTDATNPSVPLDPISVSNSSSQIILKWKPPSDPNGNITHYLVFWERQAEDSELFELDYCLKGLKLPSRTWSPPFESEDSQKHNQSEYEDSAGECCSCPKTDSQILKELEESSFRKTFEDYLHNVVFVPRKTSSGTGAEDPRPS
# Sequence of Insulin receptor (Homo sapiens) (P06213 763-1382 limits assumed): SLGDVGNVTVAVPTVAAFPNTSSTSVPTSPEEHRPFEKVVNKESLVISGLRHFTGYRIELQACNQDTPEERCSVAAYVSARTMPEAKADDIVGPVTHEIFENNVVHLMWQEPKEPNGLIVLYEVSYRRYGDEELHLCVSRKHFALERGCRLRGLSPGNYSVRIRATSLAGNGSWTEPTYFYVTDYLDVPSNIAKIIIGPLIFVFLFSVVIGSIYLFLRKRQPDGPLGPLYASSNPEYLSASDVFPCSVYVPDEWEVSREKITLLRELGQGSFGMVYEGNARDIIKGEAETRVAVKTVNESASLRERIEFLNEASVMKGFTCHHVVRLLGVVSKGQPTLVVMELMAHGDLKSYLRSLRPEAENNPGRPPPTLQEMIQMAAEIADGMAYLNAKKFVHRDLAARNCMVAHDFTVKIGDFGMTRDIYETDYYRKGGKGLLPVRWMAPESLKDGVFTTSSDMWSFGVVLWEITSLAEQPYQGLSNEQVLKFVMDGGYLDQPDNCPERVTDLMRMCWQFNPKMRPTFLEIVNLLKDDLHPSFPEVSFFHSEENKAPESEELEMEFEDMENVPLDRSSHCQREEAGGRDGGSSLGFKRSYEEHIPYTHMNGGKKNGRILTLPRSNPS
# Sequence of Casein kinase II subunit alpha (Homo sapiens) (P68400 whole entry, looked up): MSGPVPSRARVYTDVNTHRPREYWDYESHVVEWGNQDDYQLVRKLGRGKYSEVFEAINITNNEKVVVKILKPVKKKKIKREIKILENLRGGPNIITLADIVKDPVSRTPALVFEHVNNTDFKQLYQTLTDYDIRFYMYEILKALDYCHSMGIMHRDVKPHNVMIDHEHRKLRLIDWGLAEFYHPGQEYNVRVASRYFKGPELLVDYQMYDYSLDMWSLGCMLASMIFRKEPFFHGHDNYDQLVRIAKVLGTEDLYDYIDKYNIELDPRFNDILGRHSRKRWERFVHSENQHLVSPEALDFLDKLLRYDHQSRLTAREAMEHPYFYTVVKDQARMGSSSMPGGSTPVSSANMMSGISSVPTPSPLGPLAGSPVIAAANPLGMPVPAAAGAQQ
# Sequence of Inhibitor of nuclear factor kappa-B kinase subunit epsilon (Homo sapiens) (Q14164 whole entry): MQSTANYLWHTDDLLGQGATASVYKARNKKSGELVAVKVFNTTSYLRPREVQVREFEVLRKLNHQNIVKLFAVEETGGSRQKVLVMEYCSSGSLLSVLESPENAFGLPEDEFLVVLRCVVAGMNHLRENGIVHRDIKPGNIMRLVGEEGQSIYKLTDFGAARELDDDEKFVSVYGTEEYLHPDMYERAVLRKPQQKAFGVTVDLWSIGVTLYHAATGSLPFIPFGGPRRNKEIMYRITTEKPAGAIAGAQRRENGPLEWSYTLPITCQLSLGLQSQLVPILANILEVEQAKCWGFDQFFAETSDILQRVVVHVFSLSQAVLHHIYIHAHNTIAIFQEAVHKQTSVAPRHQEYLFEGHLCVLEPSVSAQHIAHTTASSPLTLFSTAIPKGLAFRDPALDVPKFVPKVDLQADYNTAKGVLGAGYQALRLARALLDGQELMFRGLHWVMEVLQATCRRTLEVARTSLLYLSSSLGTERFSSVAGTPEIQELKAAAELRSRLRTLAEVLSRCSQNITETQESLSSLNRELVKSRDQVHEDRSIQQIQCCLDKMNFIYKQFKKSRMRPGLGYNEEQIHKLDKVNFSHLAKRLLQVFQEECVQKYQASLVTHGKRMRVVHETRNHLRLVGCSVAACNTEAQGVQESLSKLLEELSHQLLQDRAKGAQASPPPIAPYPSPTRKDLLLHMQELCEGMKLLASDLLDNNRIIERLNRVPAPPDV
# Sequence of Tyrosine-protein kinase receptor UFO (Homo sapiens) (P30530 whole entry): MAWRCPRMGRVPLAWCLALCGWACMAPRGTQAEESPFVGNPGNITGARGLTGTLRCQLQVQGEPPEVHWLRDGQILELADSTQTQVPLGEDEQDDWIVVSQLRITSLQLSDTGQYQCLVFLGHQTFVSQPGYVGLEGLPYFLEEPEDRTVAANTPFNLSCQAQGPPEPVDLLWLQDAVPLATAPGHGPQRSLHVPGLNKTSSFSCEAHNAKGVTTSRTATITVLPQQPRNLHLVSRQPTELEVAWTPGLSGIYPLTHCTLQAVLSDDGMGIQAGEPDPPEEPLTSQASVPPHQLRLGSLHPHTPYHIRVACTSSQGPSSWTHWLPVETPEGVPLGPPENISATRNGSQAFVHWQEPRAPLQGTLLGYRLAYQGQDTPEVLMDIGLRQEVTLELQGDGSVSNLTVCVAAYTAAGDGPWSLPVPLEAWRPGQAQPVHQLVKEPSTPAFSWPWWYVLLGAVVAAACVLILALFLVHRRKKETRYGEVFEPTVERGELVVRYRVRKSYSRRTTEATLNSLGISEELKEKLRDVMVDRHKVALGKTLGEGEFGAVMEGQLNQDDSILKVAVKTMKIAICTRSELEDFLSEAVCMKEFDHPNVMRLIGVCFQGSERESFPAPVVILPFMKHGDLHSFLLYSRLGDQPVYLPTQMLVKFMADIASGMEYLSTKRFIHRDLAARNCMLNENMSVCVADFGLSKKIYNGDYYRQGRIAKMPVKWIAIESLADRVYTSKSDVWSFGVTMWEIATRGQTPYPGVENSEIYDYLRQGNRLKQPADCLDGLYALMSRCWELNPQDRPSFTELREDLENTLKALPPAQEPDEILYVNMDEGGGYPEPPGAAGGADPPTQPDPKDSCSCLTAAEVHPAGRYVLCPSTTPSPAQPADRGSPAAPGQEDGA
# Sequence of Tyrosine-protein kinase JAK1 (P23458 whole entry): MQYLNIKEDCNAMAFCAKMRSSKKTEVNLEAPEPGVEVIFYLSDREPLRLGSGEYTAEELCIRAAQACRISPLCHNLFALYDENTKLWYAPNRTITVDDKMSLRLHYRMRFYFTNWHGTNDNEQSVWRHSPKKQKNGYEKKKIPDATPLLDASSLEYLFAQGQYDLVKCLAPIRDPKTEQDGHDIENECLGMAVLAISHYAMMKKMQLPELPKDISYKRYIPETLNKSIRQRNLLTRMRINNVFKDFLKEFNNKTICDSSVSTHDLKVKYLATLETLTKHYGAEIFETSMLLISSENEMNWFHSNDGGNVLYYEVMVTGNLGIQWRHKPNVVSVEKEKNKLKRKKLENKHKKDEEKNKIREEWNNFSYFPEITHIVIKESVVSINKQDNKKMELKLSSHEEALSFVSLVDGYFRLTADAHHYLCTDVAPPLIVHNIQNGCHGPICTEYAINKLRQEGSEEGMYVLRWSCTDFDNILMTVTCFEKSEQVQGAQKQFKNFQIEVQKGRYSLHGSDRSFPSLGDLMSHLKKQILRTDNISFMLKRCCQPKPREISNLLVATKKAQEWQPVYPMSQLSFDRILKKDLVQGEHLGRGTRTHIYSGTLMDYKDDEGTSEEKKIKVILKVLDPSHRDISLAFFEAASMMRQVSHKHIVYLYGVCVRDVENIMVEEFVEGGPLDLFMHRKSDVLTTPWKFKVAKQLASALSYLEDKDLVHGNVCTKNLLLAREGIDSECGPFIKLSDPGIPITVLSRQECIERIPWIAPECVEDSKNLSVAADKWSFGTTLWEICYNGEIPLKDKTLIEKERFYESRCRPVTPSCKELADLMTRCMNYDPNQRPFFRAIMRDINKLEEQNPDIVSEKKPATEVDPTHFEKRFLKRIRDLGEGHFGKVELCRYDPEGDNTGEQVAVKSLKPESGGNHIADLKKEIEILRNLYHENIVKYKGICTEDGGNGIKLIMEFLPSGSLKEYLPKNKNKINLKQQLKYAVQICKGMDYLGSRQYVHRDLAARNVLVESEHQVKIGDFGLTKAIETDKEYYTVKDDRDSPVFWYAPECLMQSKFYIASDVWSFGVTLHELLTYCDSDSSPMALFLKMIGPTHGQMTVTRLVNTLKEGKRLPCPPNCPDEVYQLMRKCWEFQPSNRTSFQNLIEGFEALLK
# Sequence of Serine/threonine-protein kinase NLK (Homo sapiens) (Q9UBE8 whole entry): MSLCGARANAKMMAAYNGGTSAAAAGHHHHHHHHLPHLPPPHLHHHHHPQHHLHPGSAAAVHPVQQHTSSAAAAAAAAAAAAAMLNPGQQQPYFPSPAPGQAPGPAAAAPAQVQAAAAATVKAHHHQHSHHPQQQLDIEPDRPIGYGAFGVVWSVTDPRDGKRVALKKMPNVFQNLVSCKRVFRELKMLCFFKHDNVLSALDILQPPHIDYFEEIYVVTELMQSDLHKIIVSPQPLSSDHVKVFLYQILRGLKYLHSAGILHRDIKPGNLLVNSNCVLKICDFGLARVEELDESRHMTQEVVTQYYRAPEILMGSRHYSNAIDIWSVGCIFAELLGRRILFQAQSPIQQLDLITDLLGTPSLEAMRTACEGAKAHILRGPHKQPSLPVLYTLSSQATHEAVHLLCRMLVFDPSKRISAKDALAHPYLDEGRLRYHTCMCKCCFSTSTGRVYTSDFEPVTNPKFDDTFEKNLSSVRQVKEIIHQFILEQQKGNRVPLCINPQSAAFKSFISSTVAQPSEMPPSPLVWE
compound,measurement,setting,value
CC(C)(O)[C@H](F)CN1Cc2cc(NC(=O)c3cnn4cccnc34)c(N3CCOCC3)cc2C1=O,inhibition,[1],3.5%
same,EC50,[2],> 50 µM (not active)
same,IC50,[3],0.19 µM (active)
same,inhibition,[4],2.5%
same,inhibition,[5],37.5%
same,inhibition,[6],25.3%
same,inhibition,[7],-4%
same,inhibition,[8],1.5%
same,inhibition,[9],0.5%
same,inhibition,[10],7.5%
same,inhibition,[11],6%
same,inhibition,[12],34%
same,inhibition,[13],21.3%
same,inhibition,[14],13.3%
same,inhibition,[15],3%
same,inhibition,[16],42%
same,inhibition,[17],3.24%
same,inhibition,[18],-0.93%
same,inhibition,[19],-0.5%
same,inhibition,[20],7%
same,inhibition,[21],-0.5%
same,inhibition,[22],8.5%
same,inhibition,[23],18.5%
same,inhibition,[24],11.2%
same,inhibition,[25],-5%
same,inhibition,[26],7.5%
same,inhibition,[27],17%
same,inhibition,[28],-1%
same,inhibition,[29],5.5%
same,inhibition,[30],-2%
same,inhibition,[31],-3%
same,inhibition,[32],22.5%
same,inhibition,[33],12.5%
same,inhibition,[34],9.09%
same,inhibition,[35],19.5%
same,inhibition,[36],9%
same,inhibition,[37],-3.5%
same,inhibition,[38],34.5%
same,inhibition,[39],7%
same,inhibition,[40],-0.18%
same,inhibition,[41],-6.7%
same,inhibition,[42],-0.55%
same,inhibition,[43],3.5%
same,inhibition,[44],10%
same,inhibition,[45],2%
same,inhibition,[46],-7.43%
same,inhibition,[47],-9.22%
same,IC50,[48],0.68 µM
same,inhibition,[48]; Compound concentration 1.0 uM,86.3%
same,inhibition,[49],5.5%
same,inhibition,[50],-0%
same,inhibition,[51],1.5%
